Assay results published in patent EP1561465A2, “Methods of use of fluoroquinolone compounds against bacteria” (LG Life Sciences, Ltd., priority 1999, dated 2001).
≈ marks a conversion by molar mass, not a printed value. Like-named read-outs stand apart in the source and are kept apart here.

Tests used:
Type in all cases: cell-based
[1] = tested on: Haemophilus influenzae; assay: MIC by two-fold serial agar dilution, Sensitivity Disk agar-N (Kitasato isolates); conditions: Haemophilus influenzae (24)
[2] = tested on: Enterobacter cloacae; assay: MIC by NCCLS broth microdilution, 1100 Japanese clinical isolates 1997-1998; conditions: Enterobacter cloacae (n=40)
[3] = tested on: Haemophilus influenzae; assay: MIC by agar dilution (NCCLS), 411 isolates Buenos Aires 1998-99; conditions: Haemophilus influenzae (n = 65)
[4] = tested on: S. aureus; assay: Urinary bactericidal titers (UBT) and AUBTC of volunteers' urine; conditions: urine after gemifloxacin 320 mg or ofloxacin 400 mg
[5] = tested on: P. aeruginosa; assay: as above; conditions: P. aeruginosa (16) Laboratory No. 568; urine after gemifloxacin 320 mg or ofloxacin 400 mg
[6] = tested on: Haemophilus influenzae; assay: MIC by NCCLS reference broth microdilution, 450 respiratory tract pathogens; conditions: Haemophilus influenzae; for MIC90: read-out: MIC90
[7] = tested on: E. faecalis; assay: Urinary bactericidal titers (UBT) and AUBTC of volunteers' urine; conditions: urine after gemifloxacin 320 mg or ofloxacin 400 mg
[8] = tested on: S. aureus; assay: MIC and MBC by microdilution in Mueller-Hinton broth, uropathogens; conditions: Staphylococcus aureus
Protocol: (§1) MICs and MBCs were determined by a microdilution method with Mueller-Hinton broth. An inoculum of 1.3-9.4 x 10^5 colony forming units (CFU) per ml was used.
(§2) Strains included a reference strain E. coli ATCC 25922, susceptible to nalidixic acid (Nal-S) and the following clinical isolates obtained from complicated UTI patients: E. coli (resistant to nalidixic acid), K. pneumoniae, P. mirabilis , P. aeruginosa, […] (3 strains) and Enterococcus faecalis (2 strains).

[9] = tested on: P. mirabilis; assay: as above
Protocol: as §1, §2

[10] = tested on: E. faecalis; assay: as above; conditions: Enterococcus faecalis
Protocol: as §1, §2

[11] = tested on: P. aeruginosa; assay: as above
Protocol: as §1, §2

[12] = tested on: K. pneumoniae; assay: as above
Protocol: as §1, §2

[13] = tested on: Streptococcus pyogenes; assay: MIC by agar dilution (NCCLS), 411 isolates Buenos Aires 1998-99; conditions: Streptococcus pyogenes (n = 69)
[14] = tested on: Enterococcus gallinarum; assay: MIC by NCCLS broth microdilution, 1100 Japanese clinical isolates 1997-1998
[15] = tested on: P. mirabilis; assay: Urinary bactericidal titers (UBT) and AUBTC of volunteers' urine; conditions: P. mirabilis (16) Laboratory No. 414; urine after gemifloxacin 320 mg or ofloxacin 400 mg
[16] = tested on: Enterococcus faecalis; assay: MIC by agar macrodilution (NCCLS), 373 Gram positive isolates, Athens 1998
[17] = tested on: Streptococcus pyogenes; assay: MIC by NCCLS reference broth microdilution, 450 respiratory tract pathogens; conditions: for MIC / MIC50 / MIC90: Streptococcus pyogenes
[18] = tested on: E. coli; assay: Urinary bactericidal titers (UBT) and AUBTC of volunteers' urine; conditions: for AUBTC (range): urine after gemifloxacin 320 mg or ofloxacin 400 mg
[19] = Haemophilus influenzae (n = 100)
[20] = S. aureus Laboratory No. 83, inoculum 7.1 CFU 10^5/ml
[21] = S. aureus Laboratory No. 161, inoculum 9.4 CFU 10^5/ml
[22] = S. aureus Laboratory No. 636, inoculum 5.6 CFU 10^5/ml
[23] = E. faecalis Laboratory No. 55, inoculum 6.0 CFU 10^5/ml
[24] = E. faecalis Laboratory No. 60, inoculum 7.0 CFU 10^5/ml
[25] = Streptococcus pyogenes (n = 100)
[26] = erythromycin resistant C phenotype [MLSB] (n = 20)
[27] = erythromycin resistant I phenotype [MLSB] (n = 20)
[28] = erythromycin resistant M phenotype (n = 20)

What does the source list for CO/N=C1\CN(c2nc3c(cc2F)c(=O)c(C(=O)O)cn3C2CC2)CC1CN (racemic) [Gemifloxacin, (R,S)-7-(3-aminomethyl-4-methoxyiminopyrrolidin-1-yl)-1-cyclopropyl-6-fluoro-4-oxo-1,4-dihydro-1,8-naphthyridine-3-carboxylic acid]?
MIC50 [1]: 0.016 µg/mL (≈ 0.0411 µM); MIC90 [1]: 0.016 µg/mL (≈ 0.0411 µM); MIC Range [1]: 0.008 to 0.031 µg/mL; MIC50 [2]: 0.032 µg/mL (≈ 0.0822 µM); MIC90 [2]: 1 µg/mL (≈ 2.57 µM); MIC Range [2]: ≤0.008 to 2 µg/mL; MIC90 [3]: 0.008 µg/mL (≈ 0.0205 µM); MIC Range [3]: ≤0.004 to 0.125 µg/mL; AUBTC (range) ([4]; S. aureus (13) Laboratory No. 636): 108 (0-408); AUBTC (range) ([4]; S. aureus (16) Laboratory No. 83): 540 (246-834); AUBTC (range) ([4]; S. aureus (16) Laboratory No. 161): 60 (0-144); AUBTC (range) [5]: 48 (12-300); MIC [6, 19]: 0.0075 to 0.06 µg/mL (≈ 0.0193 to 0.154 µM); MIC50 [6, 19]: ≤ 0.0075 µg/mL; MIC90 [6, 19]: ≤ 0.00075 µg/mL; MIC ([6]; β-lactamase negative (n = 80)): 0.0075 to 0.015 µg/mL (≈ 0.0193 to 0.0385 µM); MIC50 ([6]; β-lactamase negative (n = 80)): ≤ 0.0075 µg/mL; MIC90 ([6]; β-lactamase negative (n = 80)): ≤ 0.0075 µg/mL; MIC ([6]; β-lactamase positive (n = 20)): 0.0075 to 0.06 µg/mL (≈ 0.0193 to 0.154 µM); MIC50 ([6]; β-lactamase positive (n = 20)): ≤ 0.0075 µg/mL; MIC90 ([6]; β-lactamase positive (n = 20)): 0.015 µg/mL (≈ 0.0385 µM); AUBTC (range) ([7]; E. faecalis (13) Laboratory No. 55): 39 (0-102); AUBTC (range) ([7]; E. faecalis (16) Laboratory No. 60): 246 (96-516); MBC [8, 20]: 0.008 µg/mL (≈ 0.0205 µM); MIC [8, 20]: 0.008 µg/mL (≈ 0.0205 µM); MBC [8, 21]: 0.25 µg/mL (≈ 0.642 µM); MIC [8, 21]: 0.25 µg/mL (≈ 0.642 µM); MBC [8, 22]: 2 µg/mL (≈ 5.14 µM); MIC [8, 22]: 2 µg/mL (≈ 5.14 µM); MIC ([8]; S. aureus isolate (0.008/0.25)): 0.008 µg/mL (≈ 0.0205 µM); MIC ([8]; S. aureus isolate (0.25/4)): 0.25 µg/mL (≈ 0.642 µM); MIC ([8]; S. aureus isolate (2/32), quinolone-resistant): 2 µg/mL (≈ 5.14 µM); MIC ([9]; P. mirabilis Laboratory No. 414, inoculum 2.5 CFU 10^5/ml): 0.125 µg/mL (≈ 0.321 µM); MIC ([9]; Proteus mirabilis): 0.125 µg/mL (≈ 0.321 µM); MBC ([9]; Proteus mirabilis, P. mirabilis Laboratory No. 414, inoculum 2.5 CFU 10^5/ml): 0.25 µg/mL (≈ 0.642 µM); MBC [10, 23]: 2 µg/mL (≈ 5.14 µM); MIC [10, 23]: 0.5 µg/mL (≈ 1.28 µM); MBC [10, 24]: 0.06 µg/mL (≈ 0.154 µM); MIC [10, 24]: 0.06 µg/mL (≈ 0.154 µM); MIC ([10]; E. faecalis isolate (0.06/2)): 0.06 µg/mL (≈ 0.154 µM); MIC ([10]; E. faecalis isolate (0.5/32)): 0.5 µg/mL (≈ 1.28 µM); MIC ([11]; P. aeruginosa Laboratory No. 568, inoculum 5.6 CFU 10^5/ml): 1 µg/mL (≈ 2.57 µM); MBC ([11]; Pseudomonas aeruginosa, P. aeruginosa Laboratory No. 568, inoculum 5.6 CFU 10^5/ml): 2 µg/mL (≈ 5.14 µM); MIC ([11]; Pseudomonas aeruginosa, P. aeruginosa clinical isolate, read-out: MIC): 1 µg/mL (≈ 2.57 µM); MIC ([12]; K. pneumoniae Laboratory No. 595, inoculum 3.7 CFU 10^5/ml): 0.03 µg/mL (≈ 0.077 µM); MBC ([12]; Klebsiella pneumoniae, K. pneumoniae Laboratory No. 595, inoculum 3.7 CFU 10^5/ml): 0.03 µg/mL (≈ 0.077 µM); MIC ([12]; Klebsiella pneumoniae, K. pneumoniae clinical isolate, read-out: MIC): 0.03 µg/mL (≈ 0.077 µM); MIC Range [13]: ≤0.004 to 0.125 µg/mL; MIC90 ([13]; read-out: MIC90): 0.03 µg/mL (≈ 0.077 µM); MIC ([14]; Enterococcus gallinarum (vanC1), strain TMS3): 0.125 µg/mL (≈ 0.321 µM); MIC ([14]; Enterococcus gallinarum, GALLINARUM): 0.125 µg/mL (≈ 0.321 µM); MIC ([14]; Enterococcus gallinarum, GALLINARUM, Enterococcus gallinarum (vanC1), strain TMS1, read-out: MIC): 0.032 µg/mL (≈ 0.0822 µM); MIC ([14]; Enterococcus gallinarum, GALLINARUM, Enterococcus gallinarum (vanC1), strain TMS4, read-out: MIC): 0.032 µg/mL (≈ 0.0822 µM); AUBTC (range) [15]: 261 (120-510); MIC distribution (µg/ml) 0.03 [16]: 2; MIC distribution (µg/ml) 0.06 [16]: 2; MIC distribution (µg/ml) 0.125 [16]: 24; MIC distribution (µg/ml) 0.25 [16]: 22; MIC distribution (µg/ml) 1 [16]: 2; MIC distribution (µg/ml) 2 [16]: 1; MIC distribution (µg/ml) 4 [16]: 5; MIC distribution (µg/ml) 8 [16]: 9; MIC distribution (µg/ml) 16 [16]: 5; MIC distribution (µg/ml) ≤0.015 [16]: 0; MIC distribution (µg/ml) ≥32 [16]: 4; MIC50 ([16]; Enterococcus faecalis, n = 81 isolates, read-out: MIC50): 0.25 µg/mL (≈ 0.642 µM); MIC90 ([16]; Enterococcus faecalis, n = 81 isolates, read-out: MIC90): 16 µg/mL (≈ 41.1 µM); MIC distribution (µg/ml) 0.5 ([16]; number of isolates at MIC 0.5 µg/ml, n = 81): 5; activity higher than that of the other fluoroquinolones tested ([17]; S. pyogenes): 2-32 fold; MIC [17, 25]: 0.00375 to 0.06 µg/mL (≈ 0.00963 to 0.154 µM); MIC50 [17, 25]: 0.015 µg/mL (≈ 0.0385 µM); MIC90 [17, 25]: 0.03 µg/mL (≈ 0.077 µM); MIC [17, 26]: 0.00375 to 0.03 µg/mL (≈ 0.00963 to 0.077 µM); MIC50 [17, 26]: 0.015 µg/mL (≈ 0.0385 µM); MIC90 [17, 26]: 0.015 µg/mL (≈ 0.0385 µM); MIC [17, 27]: 0.00375 to 0.06 µg/mL (≈ 0.00963 to 0.154 µM); MIC50 [17, 27]: 0.015 µg/mL (≈ 0.0385 µM); MIC90 [17, 27]: 0.03 µg/mL (≈ 0.077 µM); MIC [17, 28]: 0.00375 to 0.03 µg/mL (≈ 0.00963 to 0.077 µM); MIC50 [17, 28]: 0.015 µg/mL (≈ 0.0385 µM); MIC90 [17, 28]: 0.015 µg/mL (≈ 0.0385 µM); MIC ([17]; fully susceptible (n = 20)): 0.0075 to 0.03 µg/mL (≈ 0.0193 to 0.077 µM); MIC50 ([17]; fully susceptible (n = 20)): 0.015 µg/mL (≈ 0.0385 µM); MIC90 ([17]; fully susceptible (n = 20)): 0.03 µg/mL (≈ 0.077 µM); MIC ([17]; multi-drug resistant (n = 20)): 0.0075 to 0.015 µg/mL (≈ 0.0193 to 0.0385 µM); MIC50 ([17]; multi-drug resistant (n = 20)): 0.015 µg/mL (≈ 0.0385 µM); MIC90 ([17]; multi-drug resistant (n = 20)): 0.03 µg/mL (≈ 0.077 µM); AUBTC (range) ([18]; E. coli (16) ATCC 25922): 546 (174-816); AUBTC (range) ([18]; E. coli (16) Laboratory No. 523): 237(48-384); time for which median UBTs exceed 0 ([18]; reference strain E. coli ATCC 25922, 320 mg gemifloxacin / 400 mg ofloxacin): 5 days
